In patent US20030108490A1, “Method and test kit for avoiding long-term failures in root canal treatments” (priority 2000, published 2003):
“And” between values parts separate entries of the source, which are not always exact repeats. Equal values may be shown once. Read-outs that look alike come from different tables or passages of the source.

Tests used:
bacteria in the canals = conditions: after 1-2 week medication, in most cases; cited from earlier work
MMP-8 = conditions: for MMP-8 detected in the root canals: pooled data
From the text: 10 patients (11 teeth), with noncontributory medical histories, suffering from apical periodontitis, were selected for the collection of the root canal exudate samples. […] The sample collection was done with the approval of Ethical Committee of Helsinki University Faculty of Medicine, and with the patient's informed consent. The samples were collected during three consecutive appointments with two-week intervals, during which the root canal treatment was completed.
Primary access to the pulp and root canals was made according to regular treatment protocol. The instrumentation of the root canal was started with size 20 or 25 ISO file. X-ray was taken to determine the preparation length. At that time point, a sterile paper point was inserted into the root canal up to the preparation length for two minutes to absorb exudate from the root canal and periapical lesion. The root canals were then instrumented according to standard root canal treatment protocol. Finally, CaOH2 paste was inserted into the canal, and the access cavity was sealed.
After two weeks the root canals were reopened. After quick drying of the canals, a sterile paper point was inserted into the canal for two min for the sample collection. If the canal appeared dry, a drop of sterile saline was inserted to allow the absorption of the sample into the paper point. The root canal was then rinsed, dried and CaOH2 paste was inserted into the canal. After two weeks the procedure for the sample collection was repeated, and the root canals were filled with gutta percha and sealer in normal fashion.
Concentration of MMP-8 in the samples was determined from the elution buffer by a time-resolved immunofluorescence assay as described previously (Hanemaaijer et al., 1997). The monoclonal MMP-8 specific 8708 and 8706 antibodies were used as a catching antibody and tracer antibody, respectively. The tracer antibody was labeled using europium chelate. The assay buffer contained 20 mM Tris-HCl, pH 7.5, 0.5 M NaCl, 5 mM CaCl2, 50 μM ZnCl2, 0.5% bovine serum albumin, 0.5% sodium azide, and 20 mg/l DTPA. Samples were diluted in assay buffer and incubated for one h, followed by incubation for one h with tracer antibody. Enhancement solution was added, and after 5 min fluorescence was measured using a 1234 Delfia Research Fluorometer (Wallac, Turku, Finland).
Kruskall-Wallis 1-way ANOVA was used to analyze the degree of difference in the MMP-8 levels between the different appointments within each sample site.

[1] = obturated after one week of intracanal disinfection; cited from earlier work

SMILES: [Ca+2].[OH-].[OH-] [Ca(OH)2, calcium hydroxide]
- cultivable bacteria in the canals (bacteria in the canals): no cultivable bacteria
- levels of MMP-8 in the exudate (MMP-8; patients with initially high levels (over 1000 ng/ml), second appointment, after two weeks of treatment): undetectable levels
- MMP-8 detected in the root canals (MMP-8; necrotic teeth, after mechanical preparation and first local medication (2nd visit)): a relatively high amount of MMP-8 was detected
- MMP-8 detected in the root canals (MMP-8; after renewal of the local medication for fortnight (3rd visit)): no longer detected
- levels of MMP-8 in the root canal samples (MMP-8; two other patients with initial value of 0, second appointment): 100 to 1000 ng/mL
- teeth that failed to show any healing in the periapical lesion area after one year [1]: 26% and 24%
